Measurements published in ChEMBL document CHEMBL4619777, “A New Class of Dengue and West Nile Virus Protease Inhibitors with Submicromolar Activity in Reporter Gene DENV-2 Protease and Viral Replication Assays” (J Med Chem, 2020).
pEC50, pIC50, pKi: −log10 of the molar value. Calls of active or inactive are those of the source. Unless noted, the rule behind the calls is not given here.

Key:
[1] = molecular target: Genome polyprotein (dengue virus type 2) (UniProt P29990); assay: Inhibition of Dengue virus serotype 2 NS2B-NS3 protease expressed in Escherichia coli BL21 lambda (DE3) cells at 50 uM using Abz-Nle-Lys-Arg-Arg-Ser-3-(NO2)Tyr as substrate preincubated for 15 mins followed by substrate addition and measured for 15 mins by FRET assay relative to control
Genome polyprotein [2] = molecular target: T1, Genome polyprotein (dengue virus type 2, UniProt P29990); assay: Inhibition of Dengue virus serotype 2 NS2B-NS3 protease expressed in Escherichia coli BL21 lambda (DE3) cells using Abz-Nle-Lys-Arg-Arg-Ser-3-(NO2)Tyr as substrate preincubated for 15 mins followed by substrate addition and measured for 15 mins by FRET assay
[3] = molecular target: Genome polyprotein (West Nile virus) (UniProt P06935); assay: Inhibition of West Nile virus NS2B-NS3 protease expressed in Escherichia coli BL21 lambda (DE3) cells at 50 uM using Abz-Gly-Leu-Lys-Arg-Gly-Gly-3-(NO2)Tyr as substrate preincubated for 15 mins followed by substrate addition measured for 15 mins by fluorimetric analysis relative to control
Sequence of Genome polyprotein (West Nile virus) (P06935 whole entry): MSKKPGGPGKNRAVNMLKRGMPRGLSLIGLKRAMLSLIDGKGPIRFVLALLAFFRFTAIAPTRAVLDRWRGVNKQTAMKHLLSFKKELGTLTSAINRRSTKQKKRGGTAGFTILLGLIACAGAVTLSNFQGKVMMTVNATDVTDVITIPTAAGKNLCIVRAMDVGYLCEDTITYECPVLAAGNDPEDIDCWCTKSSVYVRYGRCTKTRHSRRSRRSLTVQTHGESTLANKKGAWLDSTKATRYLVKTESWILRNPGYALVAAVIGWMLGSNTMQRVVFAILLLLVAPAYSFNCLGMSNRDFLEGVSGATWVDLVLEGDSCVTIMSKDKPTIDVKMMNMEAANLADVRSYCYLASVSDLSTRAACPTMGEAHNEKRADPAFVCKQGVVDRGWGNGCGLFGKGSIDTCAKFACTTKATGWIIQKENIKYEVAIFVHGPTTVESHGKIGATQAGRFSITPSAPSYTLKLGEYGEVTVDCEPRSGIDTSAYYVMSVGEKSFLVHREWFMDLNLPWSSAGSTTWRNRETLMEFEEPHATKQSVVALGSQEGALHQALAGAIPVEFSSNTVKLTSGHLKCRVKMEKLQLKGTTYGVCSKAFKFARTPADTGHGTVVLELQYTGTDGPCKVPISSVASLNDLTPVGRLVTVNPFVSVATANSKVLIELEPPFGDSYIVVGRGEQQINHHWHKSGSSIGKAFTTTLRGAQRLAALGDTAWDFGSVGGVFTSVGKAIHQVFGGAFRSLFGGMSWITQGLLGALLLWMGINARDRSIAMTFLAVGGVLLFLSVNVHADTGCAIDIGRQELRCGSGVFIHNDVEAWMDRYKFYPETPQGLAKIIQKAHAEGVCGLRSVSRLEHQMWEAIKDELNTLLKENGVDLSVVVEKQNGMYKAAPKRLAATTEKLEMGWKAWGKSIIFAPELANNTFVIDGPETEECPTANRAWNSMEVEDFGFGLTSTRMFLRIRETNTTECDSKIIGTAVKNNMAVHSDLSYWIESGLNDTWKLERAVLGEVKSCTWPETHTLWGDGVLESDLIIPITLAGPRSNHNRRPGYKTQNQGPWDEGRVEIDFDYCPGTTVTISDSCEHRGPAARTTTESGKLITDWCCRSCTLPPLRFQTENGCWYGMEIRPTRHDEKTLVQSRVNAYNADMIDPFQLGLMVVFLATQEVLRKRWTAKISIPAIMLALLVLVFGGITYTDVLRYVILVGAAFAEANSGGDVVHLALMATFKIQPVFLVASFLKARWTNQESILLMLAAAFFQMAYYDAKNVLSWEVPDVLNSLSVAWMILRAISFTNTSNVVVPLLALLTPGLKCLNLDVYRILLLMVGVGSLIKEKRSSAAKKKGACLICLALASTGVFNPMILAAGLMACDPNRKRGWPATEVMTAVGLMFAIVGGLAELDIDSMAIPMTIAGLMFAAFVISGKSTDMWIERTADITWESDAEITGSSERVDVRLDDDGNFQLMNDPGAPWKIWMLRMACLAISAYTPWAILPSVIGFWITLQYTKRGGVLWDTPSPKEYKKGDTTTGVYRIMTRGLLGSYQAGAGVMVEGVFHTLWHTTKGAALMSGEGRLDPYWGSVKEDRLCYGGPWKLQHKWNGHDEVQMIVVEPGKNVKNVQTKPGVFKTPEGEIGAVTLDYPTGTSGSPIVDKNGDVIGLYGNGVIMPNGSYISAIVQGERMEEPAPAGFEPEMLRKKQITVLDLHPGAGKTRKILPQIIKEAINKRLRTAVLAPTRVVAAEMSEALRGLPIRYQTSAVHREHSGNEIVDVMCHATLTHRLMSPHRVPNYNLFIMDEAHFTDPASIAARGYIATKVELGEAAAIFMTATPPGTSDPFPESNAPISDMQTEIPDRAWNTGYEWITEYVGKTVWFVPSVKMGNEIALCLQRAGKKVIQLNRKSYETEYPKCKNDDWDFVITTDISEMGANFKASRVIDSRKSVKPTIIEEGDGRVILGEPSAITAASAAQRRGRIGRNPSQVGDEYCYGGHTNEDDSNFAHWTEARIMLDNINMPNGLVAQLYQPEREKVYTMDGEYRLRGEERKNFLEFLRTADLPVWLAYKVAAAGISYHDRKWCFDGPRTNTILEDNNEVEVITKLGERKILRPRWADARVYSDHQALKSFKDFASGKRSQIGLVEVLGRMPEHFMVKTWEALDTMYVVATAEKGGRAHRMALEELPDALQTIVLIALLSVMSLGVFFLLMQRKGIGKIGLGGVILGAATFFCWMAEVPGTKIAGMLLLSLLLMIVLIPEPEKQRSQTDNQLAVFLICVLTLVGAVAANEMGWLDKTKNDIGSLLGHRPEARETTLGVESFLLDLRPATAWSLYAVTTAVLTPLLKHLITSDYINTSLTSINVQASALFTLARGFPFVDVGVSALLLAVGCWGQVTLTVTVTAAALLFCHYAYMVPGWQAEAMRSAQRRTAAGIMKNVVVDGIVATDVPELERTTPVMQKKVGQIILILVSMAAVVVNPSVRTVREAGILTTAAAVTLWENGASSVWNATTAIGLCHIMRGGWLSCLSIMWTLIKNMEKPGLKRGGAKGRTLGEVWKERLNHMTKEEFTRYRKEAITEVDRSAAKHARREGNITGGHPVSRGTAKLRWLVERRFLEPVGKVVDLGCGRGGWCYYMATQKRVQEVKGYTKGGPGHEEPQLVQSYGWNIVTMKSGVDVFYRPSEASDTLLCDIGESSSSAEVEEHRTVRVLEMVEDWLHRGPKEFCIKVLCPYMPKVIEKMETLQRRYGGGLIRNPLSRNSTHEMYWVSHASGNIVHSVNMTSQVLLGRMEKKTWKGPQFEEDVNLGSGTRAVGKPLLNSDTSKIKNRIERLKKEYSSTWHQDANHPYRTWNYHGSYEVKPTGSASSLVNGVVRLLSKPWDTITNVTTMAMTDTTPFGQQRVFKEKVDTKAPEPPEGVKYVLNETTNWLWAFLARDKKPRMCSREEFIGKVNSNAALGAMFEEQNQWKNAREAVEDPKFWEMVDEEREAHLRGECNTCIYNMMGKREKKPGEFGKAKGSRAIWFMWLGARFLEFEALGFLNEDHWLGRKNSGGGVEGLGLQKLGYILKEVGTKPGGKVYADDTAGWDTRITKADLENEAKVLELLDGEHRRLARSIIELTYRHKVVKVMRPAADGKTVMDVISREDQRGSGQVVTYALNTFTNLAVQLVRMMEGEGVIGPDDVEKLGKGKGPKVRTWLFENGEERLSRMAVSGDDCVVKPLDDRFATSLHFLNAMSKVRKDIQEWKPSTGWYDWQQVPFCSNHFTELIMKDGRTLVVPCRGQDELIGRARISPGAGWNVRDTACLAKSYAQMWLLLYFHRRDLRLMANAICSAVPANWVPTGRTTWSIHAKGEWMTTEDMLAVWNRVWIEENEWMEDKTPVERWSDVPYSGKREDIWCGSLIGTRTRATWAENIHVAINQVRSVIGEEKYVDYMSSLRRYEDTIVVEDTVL

Genome polyprotein [4] = molecular target: Genome polyprotein (West Nile virus, UniProt P06935); assay: Inhibition of West Nile virus NS2B-NS3 protease expressed in Escherichia coli BL21 lambda (DE3) cells using Abz-Gly-Leu-Lys-Arg-Gly-Gly-3-(NO2)Tyr as substrate preincubated for 15 mins followed by substrate addition measured for 15 mins by fluorimetric analysis
Sequence of Genome polyprotein (West Nile virus, UniProt P06935) (P06935 1371-1501 limits assumed): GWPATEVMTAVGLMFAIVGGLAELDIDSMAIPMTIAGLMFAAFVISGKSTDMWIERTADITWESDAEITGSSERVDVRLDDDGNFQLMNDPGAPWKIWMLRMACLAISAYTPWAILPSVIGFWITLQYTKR
Sequence of Genome polyprotein (West Nile virus, UniProt P06935) (P06935 1502-2120 limits assumed): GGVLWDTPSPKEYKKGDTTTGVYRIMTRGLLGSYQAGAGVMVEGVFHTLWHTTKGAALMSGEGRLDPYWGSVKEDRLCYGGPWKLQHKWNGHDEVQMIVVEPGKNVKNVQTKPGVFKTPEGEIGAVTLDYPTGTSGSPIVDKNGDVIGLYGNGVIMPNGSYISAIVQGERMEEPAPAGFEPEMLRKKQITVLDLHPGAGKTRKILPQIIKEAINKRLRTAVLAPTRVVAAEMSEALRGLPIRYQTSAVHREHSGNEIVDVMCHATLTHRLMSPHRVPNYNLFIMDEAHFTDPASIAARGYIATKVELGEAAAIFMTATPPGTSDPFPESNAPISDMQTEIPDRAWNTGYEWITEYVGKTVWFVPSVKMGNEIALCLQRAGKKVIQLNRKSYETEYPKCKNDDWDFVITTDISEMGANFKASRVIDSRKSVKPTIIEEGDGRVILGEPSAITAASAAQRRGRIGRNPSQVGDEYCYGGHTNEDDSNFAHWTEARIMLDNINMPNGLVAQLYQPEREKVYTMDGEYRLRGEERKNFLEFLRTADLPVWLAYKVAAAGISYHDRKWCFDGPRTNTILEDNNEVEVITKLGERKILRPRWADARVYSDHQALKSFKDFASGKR

[5] = molecular target: Genome polyprotein (dengue virus type 2) (UniProt P29990); assay: Inhibition of Dengue virus serotype 2 NS2B-NS3 protease transfected in human HeLa cells at 12.5 uM measured after 24 hrs by Renilla-luciferase reporter gene assay relative to control; type: cell-based
Genome polyprotein [6] = molecular target: T1, Genome polyprotein; assay: Inhibition of Dengue virus serotype 2 NS2B-NS3 protease transfected in human HeLa cells measured after 24 hrs by Renilla-luciferase reporter gene assay; type: cell-based
[7] = Cytotoxicity against human HeLa cells assessed as reduction in cell viability measured after 24 hrs by celltiter-blue assay; type: cell-based
Trypsin = Trypsin (Homo sapiens, UniProt P07477+P07478+P35030); assay: Inhibition of trypsin (unknown origin) at 50 uM using Boc-Val-Pro-Arg-AMC as substrate preincubated for 15 mins followed by substrate addition and measured for 15 mins by fluorimetric assay relative to control; type: protein assay; conditions: 0.25 h, 50 µM
Prothrombin = Prothrombin (Homo sapiens, UniProt P00734); assay: Inhibition of thrombin (unknown origin) at 25 uM using Boc-Val-Pro-Arg-AMC as substrate preincubated for 15 mins followed by substrate addition and measured for 15 mins by fluorimetric assay; conditions: 0.25 h
[8] = molecular target: Genome polyprotein (dengue virus type 2) (UniProt P29990); assay: Competitive inhibition of Dengue virus serotype 2 NS2B-NS3 protease expressed in Escherichia coli BL21 lambda (DE3) cells using varying levels of Abz-Nle-Lys-Arg-Arg-Ser-3-(NO2)Tyr as substrate by Cheng-Prusoff plot analysis
[9] = molecular target: Genome polyprotein (West Nile virus) (UniProt P06935); assay: Competitive inhibition of West Nile virus NS2B-NS3 protease expressed in Escherichia coli BL21 lambda (DE3) cells using varying levels of Abz-Gly-Leu-Lys-Arg-Gly-Gly-3-(NO2)Tyr as substrate by Cheng-Prusoff plot analysis
[10] = Drug metabolism in pH 7.4 phosphate buffered saline assessed as racemization incubated for 96 hrs at 37 degC RP-HPLC analysis; type: physicochemical; conditions: buffer, pH 7.4, 96 h
[11] = Drug metabolism in pH 9 Tris-HCl buffer assessed as racemization incubated for 96 hrs at 37 degC RP-HPLC analysis; type: physicochemical; conditions: pH 9, 96 h
[12] = Drug metabolism in pH 7 DENV2proHeLa medium assessed as racemization incubated for 96 hrs at 37 degC RP-HPLC analysis; type: physicochemical; conditions: pH 7, 96 h
[13] = Drug metabolism in pH13 sodium hydroxide solution assessed as racemization incubated for 96 hrs at 37 degC RP-HPLC analysis; type: physicochemical; conditions: pH 13, 96 h
[14] = Drug metabolism in pH13 sodium hydroxide solution assessed as racemization incubated for 96 hrs at room temperature RP-HPLC analysis; type: physicochemical; conditions: pH 13, 96 h
Huh-7 = assay: Cytotoxicity against human HuH7 cells assessed as reduction in cell viability at 12 uM measured after 48 hrs by celltiter-blue assay; type: cell-based; conditions: huh-7, 48 h
dengue virus type 2 [15] = assay: Antiviral activity against DENV2 infected in human HuH7 cells assessed as reduction in virus titer at 10 uM measured after 48 hrs relative to control; type: functional; conditions: Huh-7, 48 h
dengue virus type 2 [16] = assay: Antiviral activity against DENV2 infected in human HuH7 cells assessed as reduction in virus titer measured after 48 hrs; type: functional, organism-based; conditions: Huh-7, 48 h
[17] = Permeability of the compound assessed as drug level in acceptor plate at 200 uM measured after 5 hrs at pH 7.4 by PAMPA; type: ADME; conditions: pH 7.4, 5 h
[18] = Permeability of the compound assessed as drug level in donor plate at 200 uM measured after 5 hrs at pH 7.4 by PAMPA; type: ADME; conditions: pH 7.4, 5 h
[19] = Permeability of the compound at 200 uM measured after 5 hrs at pH 7.4 by PAMPA; type: ADME; conditions: read-out: permeability
[20] = Permeability of the compound assessed as mass retention at 200 uM measured after 5 hrs at pH 7.4 by PAMPA; type: ADME; conditions: pH 7.4, 5 h

CCCCCC(=O)N[C@H](C(=O)NCc1ccc(NC(=N)N)cc1)c1ccc(OCc2ccccc2)cc1.O=C(O)C(F)(F)F
inhibition [1]: 95.1% | pIC50 (Genome polyprotein [2]): 4.96 | pKi (Genome polyprotein [2]): 5.01 | inhibition [3]: 102% | pIC50 (Genome polyprotein [4]): 4.89 | pKi (Genome polyprotein [4]): 4.91 to 4.92 | inhibition [5]: 79.8% | pEC50 (Genome polyprotein [6]): 6.31 | CC50 at 24 h [7]: > 50 µM | inhibition (INH) (Trypsin): Not Active | inhibition (INH) (Prothrombin): Not Active | inhibition [8]: Active | inhibition [9]: Active | Drug metabolism [10]: Metabolite_Notdetected | Drug metabolism [11]: Metabolite_Notdetected | Drug metabolism [12]: Metabolite_Notdetected | Drug metabolism [13]: Metabolite_Detected | Drug metabolism [14]: Metabolite_Detected | Activity (Huh-7): Non-Toxic | inhibition at 10 µM (dengue virus type 2 [15]): 84.5% | pEC50 (dengue virus type 2 [16]): 6.05 | Drug uptake [17]: 7.5 µM | Drug uptake [18]: 171 µM | Papp at 5 h, 200 µM [19]: 1.6 ×10⁻⁶ cm/s | R% [20]: 12%
